Results on 4 molecules are retold here after article PMC8876135, “The Catestatin-Derived Peptides Are New Actors to Fight the Development of Oral Candidosis” (International Journal of Molecular Sciences, 2022).

Values after ≈ are worked out from the molar mass of the structure shown. Read-outs that look alike come from different tables or passages of the source.

Usually MIC stands for the lowest concentration found to suppress growth.

Test in all cases: Susceptibility of Candida strains to antifungal drugs
Format in all cases: cell-based
Holding throughout (set-up): key to Susceptibility category: S: susceptible standard dosing regimen; R: resistant, therapeutic failure with increased exposure; I: susceptible increased exposure

Assay [1] has as its system C. albicans “R”. The note with it: strain C. albicans “R”; for Susceptibility category: EUCAST breakpoints (CLSI for Caspofungin). How it is done: (§1) Strains of Candida albicans, Candida tropicalis and Candida glabrata, frequently found in cases of oral candidosis, were tested for L-bCtl and D-bCtl antimicrobial activity. The sensitive strain of C. albicans (ATCC 10231^TM) was provided by ATCC (Manassas, VA, USA). The resistant strain of C. albicans, the sensitive and resistant strains of C. tropicalis as well as the sensitive and resistant strains of C. glabrata were kindly provided by Dr Valérie Letscher-Bru (Laboratory of Parasitolology and Medical Mycology, Strasbourg, France).

Assay [2] concerns C. albicans “S”. The note with it: strain C. albicans “S”; for Susceptibility category: EUCAST breakpoints (CLSI for Caspofungin). How it is done: as §1
In assay [3] the test system is C. glabrata “R”. Particulars: strain C. glabrata “R”; for Susceptibility category: EUCAST breakpoints (CLSI for Caspofungin). Here is the method: as §1
Assay [4] relates to C. glabrata “S”. The note with it: strain C. glabrata “S”; for Susceptibility category: EUCAST breakpoints (CLSI for Caspofungin). How it is done:
as §1

In assay [5] the test system is C. tropicalis “R”. Particulars: strain C. tropicalis “R”; for Susceptibility category: EUCAST breakpoints (CLSI for Caspofungin). Here is the method:
as §1

In assay [6] the test system is C. tropicalis “S”. Particulars: strain C. tropicalis “S”; for Susceptibility category: EUCAST breakpoints (CLSI for Caspofungin). Here is the method: as §1
For assay [7], the system named is C. lusitaniae “S”. The note with it: strain C. lusitaniae “S”; for Susceptibility category: EUCAST breakpoints (CLSI for Caspofungin).
[8] abbreviates: Candida albicans, read-out: MIC.
Where [9] appears, read: Nakaseomyces glabratus, read-out: MIC.
Where [10] appears, read: Candida tropicalis, read-out: MIC.
The mark [11] stands for this setting: Clavispora lusitaniae, read-out: MIC.

For the molecule Caspofungin, the MIC in assay [1] was determined as 0.047 µg/mL; in assay [2], 0.094 µg/mL; in assay [3] it was 0.25 µg/mL; in assay [4] it was 0.25 µg/mL; in assay [5] it was 0.125 µg/mL; in assay [6], 0.125 µg/mL. Also, the MIC in assay [7] amounted to 0.125 µg/mL. Further, the Susceptibility category result was “S” in assay [1]; “S” in assay [2]; “I” in assay [3]; “I” in assay [4]; “S” in assay [5]; “S” in assay [6]. In addition, the Susceptibility category entry in assay [7] was “S”.
For `C[C@@H](c1ncncc1F)[C@](O)(Cn1cncn1)c1ccc(F)cc1F` [Voriconazole], the minimum inhibitory concentration (MIC) was over 32 µg/mL in assay [1] (setting [8]); 0.002 µg/mL (≈ 0.00573 µM) in assay [2] (setting [8]); 8 µg/mL (≈ 22.9 µM) in assay [3] (setting [9]); 0.032 µg/mL (≈ 0.0916 µM) in assay [4] (setting [9]); 1.5 µg/mL (≈ 4.29 µM) in assay [5] (setting [10]); 0.047 µg/mL (≈ 0.135 µM) in assay [6] (setting [10]). In addition, the MIC in assay [7] (setting [11]) was found to be 0.012 µg/mL (≈ 0.0344 µM). Besides, the Susceptibility category result in assay [1] was “R”; in assay [2] it was “S”; in assay [3], “R”; in assay [4] it was “S”; in assay [5], “R”; in assay [6], “S”. The Susceptibility category entry in assay [7] was “S”.
On to `C[C@@H]1[C@H](O)[C@@H](C)/C=C/C=C/C=C/C=C/C=C/C=C/C=C/[C@H](O[C@@H]2O[C@H](C)[C@@H](O)[C@H](N)[C@@H]2O)C[C@@H]2O[C@](O)(C[C@@H](O)C[C@@H](O)[C@H](O)CC[C@@H](O)C[C@@H](O)CC(=O)O[C@H]1C)C[C@H](O)[C@H]2C(=O)O` [Amphotericin B], for which the minimum inhibitory concentration (MIC) was determined as 0.125 µg/mL (≈ 0.135 µM) in assay [1] (setting [8]); 0.19 µg/mL (≈ 0.206 µM) in assay [2] (setting [8]); 0.5 µg/mL (≈ 0.541 µM) in assay [3] (setting [9]); 0.125 µg/mL (≈ 0.135 µM) in assay [4] (setting [9]); 0.125 µg/mL (≈ 0.135 µM) in assay [5] (setting [10]); 0.125 µg/mL (≈ 0.135 µM) in assay [6] (setting [10]). Moreover, the MIC in assay [7] (setting [11]) was 0.75 µg/mL (≈ 0.812 µM). For the same molecule, the Susceptibility category result in assay [1], in assay [2], in assay [3], in assay [4], in assay [5] and in assay [6] was “S” throughout. Besides, in assay [7], the Susceptibility category result is on record as “S”.
Take `OC(Cn1cncn1)(Cn1cncn1)c1ccc(F)cc1F` [Fluconazole]: the MIC is over 256 µg/mL in assay [1] (setting [8]); 0.125 µg/mL (≈ 0.408 µM) in assay [2] (setting [8]); over 256 µg/mL in assay [3] (setting [9]); 3 µg/mL (≈ 9.8 µM) in assay [4] (setting [9]); 96 µg/mL (≈ 313 µM) in assay [5] (setting [10]); 0.5 µg/mL (≈ 1.63 µM) in assay [6] (setting [10]). In assay [7] (setting [11]), the MIC came out at 0.38 µg/mL (≈ 1.24 µM). The Susceptibility category entry is given as “R” in assay [1]; “S” in assay [2]; “R” in assay [3]; “I” in assay [4]; “R” in assay [5]; “S” in assay [6]. Moreover, the Susceptibility category entry in assay [7] is reported as “S”.
